Values joined by “and” are separate entries in the source; they are usually repeats but may differ in a detail not shown here. Equal values may be shown once. Toxic doses and inconclusive results are not listed.
Tested on: L1210 leukemia ip in BDF1 mice, survival T/C
Experiment: NCI In Vivo Anticancer Drug Screen. Data for tumor model L1210 Leukemia (intraperitoneal) in B6D2F1 (BDF1) mice
Settings: endpoint: mean survival time, higher = longer survival
Summary of the method: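 Read-out is survival time, reported as the treated-group measurement over the vehicle-control measurement.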

[1] = dose: 100.0 mg/kg/injection, schedule: Q01DX009 (ip), vehicle: saline
[2] = dose: 100.0 mg/kg/injection, schedule: Q04DX003 (ip), vehicle: saline with Tween-80
[3] = dose: 200.0 mg/kg/injection, schedule: Q04DX003 (ip), vehicle: saline with Tween-80
[4] = dose: 400.0 mg/kg/injection, schedule: Q04DX003 (ip), vehicle: saline with Tween-80
[5] = dose: 100.0 mg/kg/injection, schedule: Q04DX003 (ip), vehicle: Klucel (hydroxypropylcellulose) (HPC)
[6] = dose: 200.0 mg/kg/injection, schedule: Q04DX003 (ip), vehicle: Klucel (hydroxypropylcellulose) (HPC)
[7] = dose: 400.0 mg/kg/injection, schedule: Q04DX003 (ip), vehicle: Klucel (hydroxypropylcellulose) (HPC)
[8] = dose: 100.0 mg/kg/injection, schedule: Q01DX001 (ip), vehicle: saline with Tween-80
[9] = dose: 100.0 mg/kg/injection, schedule: Q01DX009 (ip), vehicle: saline with Tween-80
[10] = dose: 200.0 mg/kg/injection, schedule: Q01DX001 (ip), vehicle: saline with Tween-80
[11] = dose: 200.0 mg/kg/injection, schedule: Q01DX009 (ip), vehicle: saline with Tween-80
[12] = dose: 400.0 mg/kg/injection, schedule: Q01DX001 (ip), vehicle: saline with Tween-80
[13] = dose: 400.0 mg/kg/injection, schedule: Q01DX009 (ip), vehicle: saline with Tween-80
[14] = dose: 100.0 mg/kg/injection, schedule: Q01DX009 (ip), vehicle: Klucel (hydroxypropylcellulose) (HPC)
[15] = dose: 200.0 mg/kg/injection, schedule: Q01DX009 (ip), vehicle: Klucel (hydroxypropylcellulose) (HPC)
[16] = dose: 100.0 mg/kg/injection, schedule: Q01DX001 (ip), vehicle: other
[17] = dose: 200.0 mg/kg/injection, schedule: Q01DX001 (ip), vehicle: other
[18] = dose: 400.0 mg/kg/injection, schedule: Q01DX001 (ip), vehicle: other
[19] = dose: 50.0 mg/kg/injection, schedule: Q01DX001 (ip), vehicle: carboxymethylcellulose (CMC)
[20] = dose: 100.0 mg/kg/injection, schedule: Q01DX001 (ip), vehicle: carboxymethylcellulose (CMC)
[21] = dose: 200.0 mg/kg/injection, schedule: Q01DX001 (ip), vehicle: carboxymethylcellulose (CMC)
[22] = dose: 400.0 mg/kg/injection, schedule: Q01DX001 (ip), vehicle: carboxymethylcellulose (CMC)
[23] = dose: 400.0 mg/kg/injection, schedule: Q01DX009 (ip), vehicle: Klucel (hydroxypropylcellulose) (HPC)

## COCCNP(=O)(OC(C)C)OC(C)C
[1]
  T/C: 97 % of control
dose: 200.0 mg/kg/injection, schedule: Q01DX009 (ip), vehicle: saline
  T/C: 92 % of control
dose: 400.0 mg/kg/injection, schedule: Q01DX009 (ip), vehicle: saline
  T/C: 94 % of control

## O=CNc1ccccc1.[Hg]
dose: 1.56 mg/kg/injection, schedule: Q04DX003 (ip), vehicle: saline with Tween-80
  T/C: 93 % of control
dose: 3.13 mg/kg/injection, schedule: Q04DX003 (ip), vehicle: saline with Tween-80
  T/C: 92 % of control
dose: 6.25 mg/kg/injection, schedule: Q04DX003 (ip), vehicle: saline with Tween-80
  T/C: 95 % of control and 112 % of control

## COc1ccc(/C=N\NC(=O)c2ccccc2)cc1
[2]
  T/C: 102 % of control
[3]
  T/C: 103 % of control
[4]
  T/C: 92 % of control

## O=c1cc(NC(c2ccccc2)c2ccccc2)[nH]c(=O)[nH]1
[5]
  T/C: 97 % of control
[6]
  T/C: 97 % of control
[7]
  T/C: 98 % of control

## CC(C)CCCC(C)C1CCC2C3CC=C4CC(OC(=O)CCCC5CCCCC5)CCC4(C)C3CCC12C (configuration not stated)
[5]
  T/C: 94 % of control
[6]
  T/C: 94 % of control
[7]
  T/C: 94 % of control

## NC(=S)N/N=C/c1ccc(OC(=O)COc2ccccc2Cl)cn1
[2]
  T/C: 124 % of control
[4]
  T/C: 93 % of control

## O=C1C(=O)N2c3ccccc3CCc3cccc1c32
[8]
  T/C: 103 % of control
[9]
  T/C: 96 % of control
[10]
  T/C: 93 % of control
[11]
  T/C: 100 % of control
[12]
  T/C: 97 % of control
[13]
  T/C: 100 % of control

## CC(=O)N(C)c1ccc(NC(=O)CCl)cc1
[14]
  T/C: 109 % of control
[15]
  T/C: 116 % of control

## COc1cc(OCc2ccccc2)c(CC(=O)O)c([N+](=O)[O-])c1
[16]
  T/C: 104 % of control
dose: 100.0 mg/kg/injection, schedule: Q01DX009 (ip), vehicle: other
  T/C: 93 % of control
dose: 100.0 mg/kg/injection, schedule: Q04DX003 (ip), vehicle: other
  T/C: 100 % of control
[17]
  T/C: 100 % of control
dose: 200.0 mg/kg/injection, schedule: Q01DX009 (ip), vehicle: other
  T/C: 106 % of control
dose: 200.0 mg/kg/injection, schedule: Q04DX003 (ip), vehicle: other
  T/C: 94 % of control
[18]
  T/C: 94 % of control
dose: 400.0 mg/kg/injection, schedule: Q01DX009 (ip), vehicle: other
  T/C: 103 % of control
dose: 400.0 mg/kg/injection, schedule: Q04DX003 (ip), vehicle: other
  T/C: 94 % of control

## CC(=O)OCC1OC(N2C(=O)/C(=C/c3c(Cl)cccc3Cl)SC2=S)C(OC(C)=O)C(OC(C)=O)C1OC(C)=O (configuration not stated)
dose: 25.0 mg/kg/injection, schedule: Q01DX005 (ip), vehicle: other
  T/C: 103 % of control
dose: 50.0 mg/kg/injection, schedule: Q01DX005 (ip), vehicle: other
  T/C: 101 % of control
dose: 100.0 mg/kg/injection, schedule: Q01DX005 (ip), vehicle: other
  T/C: 104 % of control
dose: 200.0 mg/kg/injection, schedule: Q01DX005 (ip), vehicle: other
  T/C: 93 % of control

## O=S(=O)(O)c1ccc(S)cc1
dose: 75.0 mg/kg/injection, schedule: Q01DX001 (ip), vehicle: other
  T/C: 117 % of control

## CN(C)C1c2cc(Cl)ccc2-c2c(Cl)cc(Cl)cc21 (configuration not stated)
[19]
  T/C: 100 % of control
[20]
  T/C: 102 % of control
[21]
  T/C: 100 % of control
[22]
  T/C: 105 % of control

## Cc1cc(NC(=O)Nc2ccc(C3=NCCCN3)cc2)ccc1NC(=O)Nc1ccc(C2=NCCCN2)cc1
dose: 3.0 mg/kg/injection, schedule: Q01DX Z (ip), vehicle: water
  T/C: 113 % of control
dose: 4.5 mg/kg/injection, schedule: Q01DX Z (ip), vehicle: water
  T/C: 119 % of control
dose: 6.0 mg/kg/injection, schedule: Q01DX Z (ip), vehicle: water
  T/C: 109 % of control
dose: 7.5 mg/kg/injection, schedule: Q01DX Z (ip), vehicle: water
  T/C: 167 % of control
dose: 10.0 mg/kg/injection, schedule: Q01DX Z (ip), vehicle: water
  T/C: 220 % of control
dose: 25.0 mg/kg/injection, schedule: Q01DX Z (oral), vehicle: water
  T/C: 109 % of control
dose: 50.0 mg/kg/injection, schedule: Q01DX Z (oral), vehicle: water
  T/C: 103 % of control
[1]
  T/C: 163 % of control
dose: 100.0 mg/kg/injection, schedule: Q01DX Z (oral), vehicle: water
  T/C: 105 % of control
dose: 200.0 mg/kg/injection, schedule: Q01DX Z (oral), vehicle: water
  T/C: 109 % of control

## Cn1ncc2[nH]c(=O)n(OS(=O)(=O)c3ccccc3)c(=O)c21
dose: 50.0 mg/kg/injection, schedule: Q01DX001 (ip), vehicle: saline
  T/C: 100 % of control
dose: 100.0 mg/kg/injection, schedule: Q01DX001 (ip), vehicle: saline
  T/C: 96 % of control
dose: 200.0 mg/kg/injection, schedule: Q01DX001 (ip), vehicle: saline
  T/C: 96 % of control
dose: 400.0 mg/kg/injection, schedule: Q01DX001 (ip), vehicle: saline
  T/C: 87 % of control

## O=c1[nH]c2cscc2c(=O)n1O
[5]
  T/C: 103 % of control
[6]
  T/C: 97 % of control
[7]
  T/C: 107 % of control

## COC(=O)c1ccccc1NC(=O)c1ccc(C(=O)Nc2ccccc2C(=O)OC)cc1
[14]
  T/C: 107 % of control
[15]
  T/C: 92 % of control
[23]
  T/C: 92 % of control

## CCCCCCCCCCCCCCOc1ccc(Cl)cc1Cl
[14]
  T/C: 107 % of control
[15]
  T/C: 100 % of control
[23]
  T/C: 105 % of control

## CN1CCN(CCN2CCN(CCCN3c4ccccc4Sc4ccc(Cl)cc43)CC2)C1=O
[20]
  T/C: 104 % of control

## Cc1ccc(N2C(=O)C=C(c3ccccc3)C2=O)cc1
dose: 75.0 mg/kg/injection, schedule: Q04DX003 (ip), vehicle: Klucel (hydroxypropylcellulose) (HPC)
  T/C: 104 % of control
dose: 150.0 mg/kg/injection, schedule: Q04DX003 (ip), vehicle: Klucel (hydroxypropylcellulose) (HPC)
  T/C: 105 % of control
dose: 300.0 mg/kg/injection, schedule: Q04DX003 (ip), vehicle: Klucel (hydroxypropylcellulose) (HPC)
  T/C: 104 % of control

## Cc1cc2c(cc1C)NC(=O)C(C)CN2 (configuration not stated)
[14]
  T/C: 103 % of control
[5]
  T/C: 98 % of control
[15]
  T/C: 108 % of control
[6]
  T/C: 103 % of control
[23]
  T/C: 95 % of control
[7]
  T/C: 101 % of control

## Cc1ccc2c(c1)N(CCCN1CC[N+](C)(C)CC1)c1ccccc1S2
dose: 10.0 mg/kg/injection, schedule: Q01DX001 (ip), vehicle: saline
  T/C: 101 % of control
dose: 20.0 mg/kg/injection, schedule: Q01DX001 (ip), vehicle: saline
  T/C: 95 % of control
dose: 40.0 mg/kg/injection, schedule: Q01DX001 (ip), vehicle: saline
  T/C: 98 % of control
dose: 80.0 mg/kg/injection, schedule: Q01DX001 (ip), vehicle: saline
  T/C: 98 % of control

## NC(=S)N/N=C/c1c(Cl)n(-c2ccccc2)c2ccccc12
dose: 50.0 mg/kg/injection, schedule: Q04DX002 (ip), vehicle: Klucel (hydroxypropylcellulose) (HPC)
  T/C: 87 % of control
dose: 100.0 mg/kg/injection, schedule: Q04DX002 (ip), vehicle: Klucel (hydroxypropylcellulose) (HPC)
  T/C: 87 % of control
dose: 200.0 mg/kg/injection, schedule: Q04DX002 (ip), vehicle: Klucel (hydroxypropylcellulose) (HPC)
  T/C: 93 % of control

## CN(C)Cc1c(C=C(c2ccccc2)c2ccccc2)ccc2ccccc12
[19]
  T/C: 94 % of control
[20]
  T/C: 96 % of control
[21]
  T/C: 94 % of control
[22]
  T/C: 96 % of control

## CCCCC(C)C(=O)Nc1cccc(O)c1 (configuration not stated)
[9]
  T/C: 92 % of control
[11]
  T/C: 92 % of control
[13]
  T/C: 90 % of control

## CC1OC1CO (configuration not stated)
[2]
  T/C: 96 % of control
[3]
  T/C: 101 % of control
[4]
  T/C: 89 % of control

## CC(=O)OC1CC2CC(C1)C(C#N)C(=O)NC(=O)C2C#N (configuration not stated)
[20]
  T/C: 102 % of control
[21]
  T/C: 96 % of control
[22]
  T/C: 92 % of control

## O=S(=O)(Nc1ccc2ccccc2c1)c1ccccc1
[8]
  T/C: 103 % of control
[10]
  T/C: 97 % of control
[12]
  T/C: 97 % of control

## CCCCn1cnc2c(SC3CCCC3)ncnc21
[16]
  T/C: 98 % of control
[17]
  T/C: 96 % of control
[18]
  T/C: 93 % of control
